Measurements reported in ChEMBL document CHEMBL3352648, “Bioactive constituents of Cirsium japonicum var. australe” (J Nat Prod, 2014).
Converted amounts (≈) assume the structure as drawn. The source made the active and inactive calls. The rule behind the calls is not given here.

Tests used:
3T3-L1 [1] = assay: Hypoglycemic activity in mouse 3T3L1 cells assessed as increase in glucose consumption at 25 ug/ml after 24 hrs by 2-deoxyglucose uptake assay; format: functional, cell-based
3T3-L1 [2] = assay: Hypoglycemic activity in mouse 3T3L1 cells assessed as increase in glucose consumption at 12.5 ug/ml after 24 hrs by 2-deoxyglucose uptake assay; format: functional, cell-based
3T3-L1 [3] = assay: Hypoglycemic activity in mouse 3T3L1 cells assessed as increase in glucose consumption at 50 ug/ml after 24 hrs by 2-deoxyglucose uptake assay; format: functional, cell-based
3T3-L1 [4] = assay: Effect on lipid accumulation in mouse 3T3L1 cells at 20 ug/ml for 7 days by Oil Red O dye; format: functional, cell-based
[5] = Antioxidant activity assessed as DPPH radical scavenging activity; format: physicochemical
[6] = Antioxidant activity assessed as ABTS radical scavenging activity; format: physicochemical
3T3-L1 [7] = assay: Hypoglycemic activity in mouse 3T3L1 cells assessed as increase in glucose consumption at 50 ug/ml after 24 hrs by 2-deoxyglucose uptake assay

| EC50 [5] [µg/mL] | EC50 [6] [µg/mL] | SMILES | Activity (3T3-L1 [1]) | Activity (3T3-L1 [2]) | Activity (3T3-L1 [3]) | Activity (3T3-L1 [4]) | Activity (3T3-L1 [7]) |
| --- | --- | --- | --- | --- | --- | --- | --- |
| – | – | C=CCCCCCC(O)C(O)C(O)C#CC#CCCC (stereo not drawn) | Active | Active | Active | inactive | – |
| 0.18 (≈ 0.864 µM) | 0.19 (≈ 0.913 µM) | CCOC(=O)/C=C/c1ccc(O)c(O)c1 [ETHYL CAFFEATE] | – | – | Active | – | – |
| – | – | O=c1cc(-c2ccc(O)cc2)oc2cc(O)cc(O)c12 | – | – | – | – | inactive |
